13 molecules from US8232288B2, “Substituted benzimidazoles, benzothiazoles and benzoxazoles” (Gruenenthal GmbH, priority 2009, dated 2012) can be followed below.

The target of test [1] is T1, human B1R receptor (hB1R) (Homo sapiens, UniProt P46663).
T1 construct: expressed in transfected cells; host or cells: CHO K1 cells
T1 sequence (P46663 1-353): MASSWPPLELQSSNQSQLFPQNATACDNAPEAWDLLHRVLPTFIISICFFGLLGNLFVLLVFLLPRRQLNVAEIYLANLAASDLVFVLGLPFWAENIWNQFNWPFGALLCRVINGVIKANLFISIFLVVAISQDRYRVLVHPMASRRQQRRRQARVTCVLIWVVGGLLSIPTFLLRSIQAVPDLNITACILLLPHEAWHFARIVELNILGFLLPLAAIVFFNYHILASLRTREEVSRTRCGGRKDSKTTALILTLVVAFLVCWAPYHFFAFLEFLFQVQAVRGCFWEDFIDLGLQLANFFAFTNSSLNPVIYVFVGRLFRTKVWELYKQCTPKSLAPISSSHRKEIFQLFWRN
The experiment in a line: Functional investigation on the bradykinin receptor 1 (B1R), FLIPR Ca2+ assay, hB1R cells. Type of test: cell-based. Here is the method: (§1) The agonistic or antagonistic action of substances can be quantified on the bradykinin receptor 1 (B1R) of the human and rat species with ectopically expressing cell lines (CHO K1 cells) and with the aid of a Ca^2+-sensitive dyestuff (Fluo-4) in a fluorescent imaging plate reader (FLIPR). The figure in % activation is based on the Ca^2+ signal after addition of Lys-Des-Arg^9-bradykinin (0.5 nM) or Des-Arg^9-bradykinin (100 nM). Antagonists lead to a suppression of the Ca^2+ inflow after addition of the agonist. % inhibition compared with the maximum achievable inhibition is stated.
(§2) The agonistic or antagonistic action of substances can be determined on the bradykinin receptor 1 (B1R) of the human and rat species with the following assay. In accordance with this assay, the Ca^2+ inflow through the channel is quantified with the aid of a Ca^2+-sensitive dyestuff (type Fluo-4, Molecular Probes Europe BV, Leiden Holland) in a fluorescent imaging plate reader (FLIPR, Molecular Devices, Sunnyvale, USA).
(§3) Chinese hamster ovary cells (CHO K1 cells) transfected stably with the human B1R gene (hB1R cells) or the B1R gene of the rat (rB1R cells) are used. For functional studies, these cells are plated out on black 96-well plates with a clear base (BD Biosciences, Heidelberg, Germany or Greiner, Frickenhausen, Germany) in a density of 20,000-35,000 cells/well. The cells are left overnight at 37° C. and 5% CO2 in culture medium (hB1R cells: Nutrient Mixture Ham's F12, Gibco Invitrogen GmbH, Karlsruhe, Germany or DMEM, Sigma-Aldrich, Taufkirchen, Germany; rB1R cells: D-MEM/F12, Gibco Invitrogen GmbH, Karlsruhe, Germany) with 10 vol. % FBS (foetal bovine serum, Gibco Invitrogen GmbH, Karlsruhe, Germany or PAN Biotech GmbH, Aidenbach, Germany). On the following day, the cells are loaded for 60 min at 37° C. with 2.13 μM Fluo-4 (Molecular Probes Europe BV, Leiden Holland) in HBSS buffer (Hank's buffered saline solution, Gibco Invitrogen GmbH, Karlsruhe, Germany) with 2.5 mM probenecid (Sigma-Aldrich, Taufkirchen, Germany) and 10 mM HEPES (Sigma-Aldrich, Taufkirchen, Germany). The plates are then washed 2× with HBSS buffer, and HBSS buffer which additionally contains 0.1% BSA (bovine serum albumin; Sigma-Aldrich, Taufkirchen, Germany), 5.6 mM glucose and 0.05% gelatine (Merck KGaA, Darmstadt, Germany) is added. After a further incubation of 20 minutes at room temperature, the plates are inserted into the FLIPR for the Ca^2+ measurement.
(§4) Alternatively, the plates are washed with buffer A (15 mM HEPES, 80 mM NaCl, 5 mM KCl, 1.2 mM CaCl2, 0.7 mM MgSO4, 2 g/l glucose, 2.5 mM probenecid), buffer A is added and the plates are loaded with 2.5 μM Fluo-4 and 0.025% Pluronic F127 (Sigma-Aldrich, Taufkirchen, Germany). Thereafter, the cells are washed 2× with buffer A and incubated for 30 minutes at room temperature with buffer A, which additionally contains 0.05% BSA and 0.05% gelatine, and thereafter inserted into the FLIPR for the Ca^2+ measurement.
(§5) The Ca^2+-dependent fluorescence is measured here before and after addition of substances (λex=488 nm, λem=540 nm). Quantification is by measurement of the highest fluorescence intensity (FC, fluorescence counts) over time.
(§6) The FLIPR protocol consists of 2 additions of substance. Test substances (10 μM) are first pipetted on to the cells and the Ca^2+ inflow is compared with the control (hB1R: Lys-Des-Arg^9-bradykinin>=50 nM; rB1R: Des-Arg^9-bradykinin 10 μM). This gives the result in % activation based on the Ca^2+ signal after addition of Lys-Des-Arg^9-bradykinin (>=50 nM) or Des-Arg^9-bradykinin (10 μM). After incubation for 10-20 minutes, Lys-Des-Arg^9-bradykinin (hB1R) or Des-Arg^9-bradykinin (rB1R) in the concentration of the EC80 is applied and the inflow of Ca^2+ is likewise determined. Antagonists lead to a suppression of the Ca^2+ inflow. % inhibition compared with the maximum achievable inhibition is calculated.
(§7) In order to determine the IC50 value, the substances are added in various concentrations. […]

Test [2] concerns the target T2, B1R receptor of the rat (rB1R) (Rattus norvegicus, UniProt P97583).
T2 construct: expressed in transfected cells; host or cells: CHO K1 cells
T2 sequence (P97583 1-337): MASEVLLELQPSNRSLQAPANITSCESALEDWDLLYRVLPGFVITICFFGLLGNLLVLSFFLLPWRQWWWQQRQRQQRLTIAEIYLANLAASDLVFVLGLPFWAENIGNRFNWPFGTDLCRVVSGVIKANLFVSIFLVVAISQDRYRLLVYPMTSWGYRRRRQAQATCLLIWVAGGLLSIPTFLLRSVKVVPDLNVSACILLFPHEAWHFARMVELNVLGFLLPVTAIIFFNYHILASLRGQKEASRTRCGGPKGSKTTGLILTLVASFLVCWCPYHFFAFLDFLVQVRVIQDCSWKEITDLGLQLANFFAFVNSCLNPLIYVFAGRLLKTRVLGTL
As to the kind of experiment: Functional investigation on the bradykinin receptor 1 (B1R), FLIPR Ca2+ assay, rB1R cells. In kind it is cell-based. Here is the method:
as §1, §2, §3, §4, §5, §6, §7

As a reminder, the inhibition is the drop in the measured response relative to a control, in per cent. Regarding `CN(Cc1nc2ccc(C(=O)N3CCC4(CC3)CCN(c3ccncc3)CC4)cc2[nH]1)S(=O)(=O)c1cccc2ccccc12` [I_25, N-methyl-N-[[6-(9-pyridin-4-yl-3,9-diazaspiro[5.5]undecane-3-carbonyl)-1H-benzoimidazol-2-yl]-methyl]-naphthalene-1-sulfonic acid amide], the inhibition at 10 µM in test [1] was found to be 95%; in test [2] it was 96%.

Take `COc1cc(C)c(S(=O)(=O)N(C)C(C)c2nc3cccc(C(=O)N4CCC5(CCN(C(=O)c6ccc(C(F)(F)F)cn6)CC5)CC4)c3[nH]2)c(C)c1` (stereo not shown) [I_CC-46, 4-Methoxy-N,2,6-trimethyl-N-[1-[7-[9-[5-(trifluoromethyl)-pyridine-2-carbonyl]-3,9-diazaspiro[5.5]undecane-3-carbonyl]-1H-benzoimidazol-2-yl]-ethyl]-benzenesulfonic acid amide]: the values for the inhibition at 10 µM in test [1] and in test [2] were 42% and 89%, respectively.

With `CN(Cc1nc2cccc(C(=O)N3CCC4(CC3)CCN(c3ccncc3)CC4)c2[nH]1)S(=O)(=O)c1ccccc1C(F)(F)F` [I_08, N-methyl-N-[[7-(9-pyridin-4-yl-3,9-diazaspiro[5.5]undecane-3-carbonyl)-1H-benzoimidazol-2-yl]-methyl]-2-(trifluoromethyl)-benzenesulfonic acid amide], the figures for the inhibition at 10 µM in test [1] and in test [2] were 100% and 99%, respectively.

In the case of `COc1cc(C)c(S(=O)(=O)N(C)C(C)c2nc3cccc(C(=O)N4CCC5(CCN(Cc6ccccc6C#N)CC5)CC4)c3[nH]2)c(C)c1` (stereo not shown) [I_CC-45, N-[1-[7-[9-[(2-Cyano-phenyl)-methyl]-3,9-diazaspiro[5.5]undecane-3-carbonyl]-1H-benzoimidazol-2-yl]-ethyl]-4-methoxy-N,2,6-trimethyl-benzenesulfonic acid amide], the results for the inhibition at 10 µM in test [1] and in test [2] were 81% and 98%, respectively.

For `COc1cc(C)c(S(=O)(=O)N(C)Cc2nc3cccc(C(=O)N4CCC5(CCN(c6ccncc6)CC5)C4)c3[nH]2)c(C)c1` [I_09, 4-methoxy-N,2,6-trimethyl-N-[[7-(8-pyridin-4-yl-3,8-diazaspiro[4.5]decane-3-carbonyl)-1H-benzoimidazol-2-yl]-methyl]-benzenesulfonic acid amide], the inhibition at 10 µM in test [1] was 99%; in test [2], 104%.

Turning to `COc1cc(C)c(S(=O)(=O)N(C)C(C)c2nc3cccc(C(=O)N4CCC5(CCN(Cc6c(F)cccc6Cl)CC5)CC4)c3[nH]2)c(C)c1` (stereo not shown) [I_CC-40, N-[1-[7-[9-[(2-Chloro-6-fluoro-phenyl)-methyl]-3,9-diazaspiro[5.5]undecane-3-carbonyl]-1H-benzoimidazol-2-yl]-ethyl]-4-methoxy-N,2,6-trimethyl-benzenesulfonic acid amide], the inhibition at 10 µM in test [1] turned out to be 49%; in test [2], 99%.

As to `COc1cc(C)c(S(=O)(=O)N(C)C(C)c2nc3cccc(C(=O)N4CCC5(CCN(Cc6c(C)noc6C)CC5)CC4)c3[nH]2)c(C)c1` (stereo not shown) [I_CC-42, N-[1-[7-[9-[(3,5-Dimethyl-isoxazol-4-yl)-methyl]-3,9-diazaspiro[5.5]undecane-3-carbonyl]-1H-benzoimidazol-2-yl]-ethyl]-4-methoxy-N,2,6-trimethyl-benzenesulfonic acid amide], the values for the inhibition at 10 µM in test [1] and in test [2] were 76% and 90%, respectively.

For `COc1cc(C)c(S(=O)(=O)N(C)C(C)c2nc3cccc(C(=O)N4CCC5(CCN(C(=O)c6ccc(C#N)cc6)CC5)CC4)c3[nH]2)c(C)c1` (stereo not shown) [I_CC-49, N-[1-[7-[9-(4-Cyano-benzoyl)-3,9-diazaspiro[5.5]undecane-3-carbonyl]-1H-benzoimidazol-2-yl]-ethyl]-4-methoxy-N,2,6-trimethyl-benzenesulfonic acid amide], the values for the inhibition at 10 µM in test [1] and in test [2] were 72% and 87%, respectively.

With `COc1cc(C)c(S(=O)(=O)N(C)C(C)c2nc3cccc(C(=O)N4CCC5(CCN(Cc6csnn6)CC5)CC4)c3[nH]2)c(C)c1` (stereo not shown) [I_CC-38, 4-Methoxy-N,2,6-trimethyl-N-[1-[7-[9-([1,2,3]thiadiazol-4-yl-methyl)-3,9-diazaspiro[5.5]undecane-3-carbonyl]-1H-benzoimidazol-2-yl]-ethyl]-benzenesulfonic acid amide], the figures for the inhibition at 10 µM in test [1] and in test [2] were 85% and 97%, respectively.

As to `COc1cc(C)c(S(=O)(=O)N(C)Cc2nc3ccc(F)c(C(=O)N4CCC5(CC4)CCN(c4ccncc4)CC5)c3[nH]2)c(C)c1` [I_13, N-[[6-fluoro-7-(9-pyridin-4-yl-3,9-diazaspiro[5.5]undecane-3-carbonyl)-1H-benzoimidazol-2-yl]-methyl]-4-methoxy-N,2,6-trimethyl-benzenesulfonic acid amide], the inhibition at 10 µM in test [1] amounted to 98%; in test [2] it was 93%.

On to `COc1cc(C)c(S(=O)(=O)N(C)Cc2nc3cccc(C(=O)N4CCC5(CC4)CCN(c4ccncc4)CC5)c3[nH]2)c(C)c1` [I_01, 4-methoxy-N,2,6-trimethyl-N-[[7-(9-pyridin-4-yl-3,9-diazaspiro[5.5]undecane-3-carbonyl)-1H-benzoimidazol-2-yl]-methyl]-benzenesulfonic acid amide], for which the “% Inhibition (human B1R) at 10 μM” value in test [1] (10 µM) is 98%. Further, the “% Inhibition (rat B1R) at 10 μM” value in test [2] (10 µM) was 96%.

Consider `COc1cc(C)c(S(=O)(=O)N(C)Cc2nc3cccc(C(=O)N4CCC5(CC4)CCN(c4ccncc4)C5)c3[nH]2)c(C)c1` [I_CC-06, 4-methoxy-N,2,6-trimethyl-N-[[7-(3-pyridin-4-yl-3,8-diazaspiro[4.5]decane-8-carbonyl)-1H-benzoimidazol-2-yl]-methyl]-benzenesulfonic acid amide], for which the inhibition at 10 µM in test [1] turned out to be 100%; in test [2], 102%.

`COc1cc(C)c(S(=O)(=O)N(C)C(C)c2nc3cccc(C(=O)N4CCC5(CC4)CCN(S(=O)(=O)c4cccc6c4ccn6C)CC5)c3[nH]2)c(C)c1` (stereo not shown) [I_CC-60, 4-Methoxy-N,2,6-trimethyl-N-[1-[7-[9-[(1-methyl-1H-indol-4-yl)sulfonyl]-3,9-diazaspiro[5.5]undecane-3-carbonyl]-1H-benzoimidazol-2-yl]-ethyl]-benzenesulfonic acid amide]: in test [2], the inhibition at 10 µM turned out to be 101%.
